This test concerns the target H3 receptors (Cavia porcellus, UniProt Q9JI35). In words: H3 Receptor Binding Assay. To be noted: guinea pig brain membranes; 3 nM [3H]R-α-methylhistamine or [3H]-N-methylhistamine; 30° for 30 min; 50 mM Tris, pH 7.5.

Chain of H3 receptors (Q9JI35 whole entry): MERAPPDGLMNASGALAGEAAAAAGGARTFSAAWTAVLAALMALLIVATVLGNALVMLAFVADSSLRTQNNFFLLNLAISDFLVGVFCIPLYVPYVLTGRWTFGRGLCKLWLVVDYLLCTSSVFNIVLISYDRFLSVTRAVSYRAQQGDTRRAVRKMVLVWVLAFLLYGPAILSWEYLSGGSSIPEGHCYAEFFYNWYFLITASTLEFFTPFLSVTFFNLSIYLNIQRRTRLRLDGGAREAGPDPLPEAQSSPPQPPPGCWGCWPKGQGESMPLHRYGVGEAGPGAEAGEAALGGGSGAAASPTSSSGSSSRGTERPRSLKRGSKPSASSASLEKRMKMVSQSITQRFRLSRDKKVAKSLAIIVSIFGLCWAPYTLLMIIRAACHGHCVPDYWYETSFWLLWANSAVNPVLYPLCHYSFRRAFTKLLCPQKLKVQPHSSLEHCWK
Protocol: The animals used weighed 400-600 g. The tissue was homogenized using a Polytron in a solution of 50 mM Tris, pH 7.5. The final concentration of tissue in the homogenization buffer was 10% w/v. The homogenates were centrifuged at 1000 x g for 10 min. in order to remove clumps of tissue and debris. The resulting supernatants were then centrifuged at 50,000 x g for 20 min. in order to sediment the membranes, which were next washed 3 times in homogenization buffer (50,000 x g for 20 min. each). The membranes were frozen and stored at -70°C until needed.
All compounds to be tested were dissolved in DMSO and then diluted into the binding buffer (50 mM Tris, pH 7.5) such that the final concentration was 2 µg/mL with 0.1% DMSO. Membranes were then added (400 µg of protein) to the reaction tubes. The reaction was started by the addition of 3 nM [^3H]R-α-methylhistamine (8.8 Ci/mmol) or [^3H]-N-methylhistamine (80 Ci/mmol) and incubated at 30° for 30 min. Bound ligand was separated from unbound ligand by filtration, and the amount of radioactive ligand bound to the membranes was quantitiated by liquid scintillation spectrometry. All incubations were performed in duplicate and the standard error was less than 10% in all instances.

For orientation: Ki means a measure of affinity in units of concentration, obtained from inhibition or displacement. Low values mean tighter binding, high ones weaker binding. Take `CN1CCCC(Cc2c[nH]cn2)C1` (centres unmarked) [Compound 6.2]: the Ki was 190 nM.
With `c1nc(CC2CCNCC2)c[nH]1` [Compound 7.3] the figure was 0.3 nM.

Source of the values: patent EP0619818B1, “IMIDAZOYLALKYL SUBSTITUTED WITH A SIX MEMBERED NITROGEN CONTAINING HETEROCYCLIC RING” (SCHERING CORPORATION, priority 1991, dated 1993).
